From patent US20230250172A1, “IMPLANTABLE SCAFFOLDS AND USES THEREOF FOR IMMUNOTHERAPY AND OTHER USES” (The Regents of the University of California, priority 2019, published 2023)
“Also recorded” adds a separate entry of the source.

Columns and labels:
[1] = test system: formation of regulatory T cells (Treg), Foxp3 expression; experiment: in vitro inhibition of Treg formation (2D); format: cell-based, mouse
Experimental: (§1) For Treg formation experiments CD4+ T cells were purified from mouse spleen as mentioned above. Cells were then either activated on scaffolds or on anti-CD3e antibody (8 mg/ml) coated plates with the anti-CD28 antibody (2 mg/ml) supplemented medium. At the same time transforming growth factor-beta (TGF-beta; TGF-β) (15 ng/ml) was added to the media. After four days regulatory T cells were removed and stained with antibodies for flow cytometry analysis.
as §1, with “μg/mL)” for “mg/ml)”, “TGF-β” for “transforming growth factor-beta (TGF-beta; TGF-β)”, “ng/mL)” for “ng/ml)”, “removed, fixed, permeabilized,” for “removed”, “cytometric analysis of Foxp3 expression.” for “cytometry analysis.”

TGF-beta receptor (TβR) = details: reported IC50 value (FIG. 13B); cited from earlier work
[2] = test system: B16-F10-Ova melanoma tumors; experiment: melanoma model, cell-free scaffold implanted adjacent to tumor; format: in vivo, mouse; details: for T cell recruitment and tumor clearance compared to control scaffolds: chemokine in full scaffold
Excerpt: 2-5×10^5 (2-5×105) B16F10-OVA tumor cells were subcutaneously injected into right or both (in the contralateral tumor model) right and left flanks of C57BL/6J WT mice (6-8 weeks old). These melanoma-derived cells are transfected to express chicken ovalbumin peptide (OVA)34. Five days after tumor cell injection, scaffolds were surgically implanted subcutaneously into the same approximate region of the tumors in both flanks. For cell-loaded studies, ex vivo activated OT-I T cells were transferred either intravenously using retro-orbital injections (100 microliters [μL] per animal) or implantable scaffolds at the same day. Tumor size was assessed over time using a digital caliber until day 22 at which animals were sacrificed and the tumor, draining lymph nodes, and spleen were extracted. Tumor mass was measured using a digital balance before digesting the tumor tissue for flow cytometry or fixing it for tissue sectioning. Tumors were digested by incubating in collagenase and DNase I (50 micrograms/mL [μg/mL]) at 37° C. for 15 min. These enzymes were inactivated with ethylenediamine tetra-acetic acid (EDTA) (20 microliters/mL [μL/mL] of solution). […] Tissue sections were imaged by a fluorescence microscope (KEYENCE™ BZ-X800, Osaka, Japan).
Typically, mice received subcutaneous injections of B16-F10 cells to their right flank followed by the scaffold implantation adjacent to the tumor once it was palpable. Without any further treatment animal's health was monitored and were euthanized 17 days afterwards. […]
2-5×10^5 B16F10-OVA or B16F10 tumor cells were subcutaneously injected into right or both (in the contralateral tumor model) right and left flanks of wild-type C57BL/6J WT mice (6-8 weeks old, Jackson Lab). […] Tumor size was assessed over time using a digital caliper until day 22 at which animals were sacrificed and the tumor, draining lymph nodes, and spleen were extracted.
Tumor masses were measured using a digital balance before digesting the tumor tissue for flow cytometry or fixing it for tissue sectioning. […]

B16F10-OVA tumor cells = experiment: Transwell migration assay of tumor cells; format: cell-based, mouse; details: hydrogels containing CCL21; 8 h
Experimental: The migration assay to evaluate the role of chemokines on recruitment of T cells and melanoma cancer in the presence and absence of magnetic particles was performed using regular Transwell migration (Majedi, F. S. et al. Cytokine Secreting Microparticles Engineer the Fate and the Effector Functions of T-Cells. Adv. Mater. 30, 1703178 (2018)). […]
The migration assay to evaluate the role of chemokines on recruitment of T cells and melanoma cells in the presence and absence of chemokine-functionalized scaffolds was performed using regular Transwell migration as reported. […]

For Cc1cccc(-c2nn3c(c2-c2ccnc4ccc(C(N)=O)cc24)CCC3)n1 [LY2157299, galunisertib], the Treg formation suppressed ([1]; 2D, aAPCs, soluble TGF-β in media, soluble TGFbi 10 uM or PLGA NPs with equivalent amount) was “about 40%” and the “potency in suppressing Treg formation” value ([1]; at 1 nM concentrations, versus SB505124) was “about twice as potent as SB505124”.

In the case of Cc1cccc(-c2[nH]c(C(C)(C)C)nc2-c2ccc3c(c2)OCO3)n1 [SB505124], the IC50 (TGF-beta receptor (TβR)) is given as 129 nM.

With “CXCL12: stromal cell-derived factor 1 chemokine, used in the scaffold instead of CCL21” the “T cell recruitment and tumor clearance compared to control scaffolds” value [2] was “successfully recruited T cells and helped clear tumors”.

B1: CCL21: chemokine (C-C motif) ligand 21, chemoattractant mixed into the scaffold (protein)
chain: SDGGGQDCCLKYSQKKIPYSIVRGYRKQEPSLGCPIPAILFSPRKHSKPELCANPEEGWVQNLMRRLDQPPAPGKQSPGCRKNRGTSKSGKKGKGSKGCKRTEQTQPSRG
For B1, the “recruitment of tumor cells (chemotaxis)” value (B16F10-OVA tumor cells) was “no significant effect”, the “recruitment of CD8+ T cells by chemokine released from scaffold” value ([2]; CCL21 versus SDF-1a (CXCL12), otherwise identical scaffolds) was “favors recruitment of CD8+ T cells more than SDF-1α; also recorded: favored recruitment of CD8+ T cells and disfavored CD4+ T cells as compared with CXCL12” and the “T cell recruitment and tumor clearance compared to control scaffolds” value [2] was “successfully recruited T cells and helped clear tumors”.
